The record followed here is article PMC13266999, “Designing Antibiotics with Inherent Resistance to Efflux as a Strategy to Revive Discovery against Multidrug-Resistant Pathogens” (Journal of Medicinal Chemistry, 2026).

≈ marks a conversion by molar mass, not a printed value. Like-named read-outs stand apart in the source and are kept apart here.

The subject of experiment [1] is Pseudomonas aeruginosa. In words: MIC (microbroth dilution). The class given is cell-based. The method, boiled down:
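Broth microdilution MICs were run in tryptic soy broth, or for Streptococcus spp. in cation-adjusted Mueller Hinton broth with 2.5% lysed horse blood, using overnight stationary-phase cultures back-diluted. MIC was the lowest concentration with no visible growth, with OD600 also read. Some MICs included PMBN at 30 μg/mL final.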

Experiment [2] has as its system S. aureus SA-1199 WT and SA-1199B. In words: Accumulation assay. The class given is cell-based. The settings on record: SA-1199B compared to SA-1199. As for the experimental part:
Minor adjustments were made to the protocol previously described by Geddes and Hergenrother. After centrifugation in oil to remove excess compound, the pellets were dissolved in 200 μL of ultrapure sterile water and subjected to five freeze–thaw cycles. Each cycle consisted of 1 min in a dry ice and ethanol bath, followed by vortexing and 3 min in a heat block at 65 °C. Miles Misra viable counts were used to determine the number of colony-forming units (CFUs) for each replicate. These counts were performed for the 0.55 OD inoculum, postcompound incubation, solvent-only control, and lysates.
A 20 μL sample was injected into an Onyx monolithic C18 column and run using a gradient method. The mobile phase began with 10% acetonitrile and 90% water, with the acetonitrile content increased to 90% over 7 min, maintained for 2 min, and then returned to 10%. The area under the curve was automatically calculated using Agilent ChemStation software to determine the level of accumulation within the bacterial cells. Finally, the data were analyzed using GraphPad Prism 10.4.1. Unpaired t test was conducted to evaluate the statistical significance of the level of efflux in the efflux mutant S. aureus 1199B strain compared to the wild-type S. aureus 1199 strain.

Experiment [3] in a line: Murine thigh infection model. The settings on record: oral 50 mg/kg at 2, 8, and 14 h postinfection; at 26 h.

One may read the MIC as the least concentration at which growth counts as inhibited. What is called MIC50 is an inhibitory concentration at the 50% level, which refers to growth in some studies and to a panel of isolates in others. Regarding `C[C@H]1COc2c(N3CCN(C)CC3)c(F)cc3c(=O)c(C(=O)O)cn1c23` [Levofloxacin, (S)-9-Fluoro-3-methyl-10-(4-methylpiperazin-1-yl)-7-oxo-2,3-dihydro-7H-[1,4]oxazino[2,3,4-ij]quinoline-6-carboxylic acid, reference compound], the MIC in experiment [1] (CAS4, + PMBN) was ≤ 0.125 µg/mL; in experiment [1] (CFL 004 CRCN, + PMBN) it was 16 µg/mL; in experiment [1] (GH12, + PMBN), 4 µg/mL; in experiment [1] (NCTC 10662, + PMBN), ≤ 0.125 µg/mL; in experiment [1] (NCTC 12903, + PMBN) it was ≤ 0.125 µg/mL; in experiment [1] (NCTC 13359, + PMBN) it was 0.25 µg/mL. Besides, the MIC in experiment [1] (PAO1, + PMBN) was 0.125 µg/mL; in experiment [1] (PAO1 ΔmexB, + PMBN), ≤ 0.03 µg/mL; in experiment [1] (Pseudomonas aeruginosa, CAS4), 2 µg/mL (≈ 5.53 µM); in experiment [1] (Pseudomonas aeruginosa, GH12) it was 64 µg/mL (≈ 177 µM); in experiment [1] (Pseudomonas aeruginosa, GH100), 0.25 µg/mL (≈ 0.692 µM); in experiment [1] (Pseudomonas aeruginosa, NCTC10662, NCTC 10662), 2 µg/mL (≈ 5.53 µM). Moreover, the MIC in experiment [1] (Pseudomonas aeruginosa, NCTC12903, NCTC 12903) is 4 µg/mL (≈ 11.1 µM); in experiment [1] (Pseudomonas aeruginosa, NCTC13359, NCTC 13359), 4 µg/mL (≈ 11.1 µM); in experiment [1] (Pseudomonas aeruginosa, PAO1), 0.5 µg/mL (≈ 1.38 µM); in experiment [1] (Pseudomonas aeruginosa, PAO1, PAO1) it was 2 µg/mL (≈ 5.53 µM); in experiment [1] (Pseudomonas aeruginosa, CFL 004 CRCN, read-out: MIC), 128 µg/mL (≈ 354 µM). Further, the MIC50 in experiment [1] (Pseudomonas aeruginosa, in the presence of PMBN, n = 7 strains) turned out to be 0.125 µg/mL. Besides, the level of accumulation entry in experiment [2] is “lower in the NorA-overexpressing SA-1199B strain”. The “bacterial counts in thigh” value in experiment [3] was found to be 3.28 log10 CFU/g.
